The assay relates to NL-RLuc virus. As to the kind of experiment: Inhibition of HIV replication (NL-RLuc luciferase reporter virus in MT-2 cells). Type of assay: cell-based. The note with it: Human immunodeficiency virus 1, MT2, 120 h. From the text:
Inhibition of HIV Replication:
A recombinant NL-RLuc proviral clone was constructed in which a section of the nef gene from NL4-3 was replaced with the Renilla Luciferase gene. This virus is fully infectious and can undergo multiple cycles of replication in cell culture. In addition, the luciferous reporter provides a simple and easy method for quantitating the extent of virus growth and consequently, the antiviral activity of test compounds. The plasmid pNLRLuc contains the proviral NL-Rluc DNA cloned into pUC 18 at the PvuII site. The NL-RLuc virus was prepared by transfection of 293T cells with the plasmid pNLRLuc. Transfections were performed using the LipofectAMINE PLUS kit from Invitrogen (Carlsbad, Calif.) according to the manufacturer and the virus generated was titered in MT-2 cells. For susceptibility analyses, the titrated virus was used to infect MT-2 cells in the presence of compound, and after 5 days of incubation, cells were processed and quantitated for virus growth by the amount of expressed luciferase. Assay media was RPMI 1640 supplemented with 10% heat inactivated fetal bovine serum (FBS), 100 units/ml penicillin G/100 units/ml streptomycin, 10 mM HEPES buffer pH 7.55 and 2 mM L-glutamine. The results from at least 2 experiments were used to calculate the EC50 values. Luciferase was quantitated using the Dual Luciferase kit from Promega (Madison, Wis.). Susceptibility of viruses to compounds was determined by incubation in the presence of serial dilutions of the compound. The 50% effective concentration (EC50) was calculated by using the exponential form of the median effect equation where (Fa)=1/[1+(ED50/drug conc.)^m](Johnson V A, Byington R T. Infectivity Assay. In Techniques in HIV Research. ed. Aldovini A, Walker B D. 71-76. New York: Stockton Press.1990). Activity equal to A refers to a compound having an EC50≤100 nM, while B and C denote compounds having an EC50 between 100 nM and 1 uM (B) or >1 uM (C).

Here are results for 22 molecules from US20190010139A1 (priority 2015, published 2019).

Read-outs that look alike come from different tables or passages of the source. A value given as a limit tells only on which side of the number the result lay.

With `Cc1nc(CF)c(-c2ccc(OCCc3ccc(F)cc3)cc2)c(N2CCC3(CCC3)CC2)c1[C@H](OC(C)(C)C)C(=O)O` [Example 40, (S)-2-(tert-Butoxy)-2-(6-(fluoromethyl)-5-(4-(4-fluorophenethoxy)phenyl)-2-methyl-4-(7-azaspiro[3.5]nonan-7-yl)pyridin-3-yl)acetic acid], the EC50 (read-out: Activity) was less than 0.1 µM.
On to `Cc1nc(C)c([C@H](OC(C)(C)C)C(=O)O)c(N2CCC3(CCCC3)C2)c1-c1ccc(C(=O)NCc2ccccc2)cc1` [Example 15, (S)-2-(5-(4-(Benzylcarbamoyl)phenyl)-2,6-dimethyl-4-(2-azaspiro[4.4]nonan-2-yl)pyridin-3-yl)-2-(tert-butoxy)acetic acid], for which, where the note is “read-out: Activity”, the EC50 is less than 0.1 µM.
For `Cc1nc(C)c([C@H](OC(C)(C)C)C(=O)O)c(N2CCC3(CCCC3)CC2)c1-c1ccc2c(c1)CCN(Cc1ccccc1F)C2` [Example 26, (S)-2-(tert-Butoxy)-2-(5-(2-(2-fluorobenzyl)-1,2,3,4-tetrahydroisoquinolin-6-yl)-2,6-dimethyl-4-(8-azaspiro[4.5]decan-8-yl)pyridin-3-yl)acetic acid], for the setting “read-out: Activity”, the EC50 is less than 0.1 µM.
The same measure, in the same setting: then `Cc1nc(CN(C)CC2CCCCC2)c(-c2ccc(OCCc3ccc(F)cc3)cc2)c(N2CCC3(CCC3)CC2)c1[C@H](OC(C)(C)C)C(=O)O` [Example 59, (S)-2-(tert-Butoxy)-2-(6-(((cyclohexylmethyl)(methyl)amino)methyl)-5-(4-(4-fluorophenethoxy)phenyl)-2-methyl-4-(7-azaspiro[3.5]nonan-7-yl)pyridin-3-yl)acetic acid], with less than 0.1 µM.
For `Cc1nc(COCC2CCOCC2)c(-c2ccc(OCCc3ccc(F)cc3)cc2)c(N2CCC3(CCC3)CC2)c1[C@H](OC(C)(C)C)C(=O)O` [Example 51, (S)-2-(tert-Butoxy)-2-(5-(4-(4-fluorophenethoxy)phenyl)-2-methyl-4-(7-azaspiro[3.5]nonan-7-yl)-6-(((tetrahydro-2H-pyran-4-yl)methoxy)methyl)pyridin-3-yl)acetic acid], the EC50 (read-out: Activity) is less than 0.1 µM.
With `Cc1nc(C)c([C@H](OC(C)(C)C)C(=O)O)c(N2CC3CC3C2)c1-c1ccc(C(=O)NCc2ccccc2)cc1` (stereo partly drawn) [Example 7, (2S)-2-(5-(4-(Benzylcarbamoyl)phenyl)-4-(3-azabicyclo[3.1.0]hexan-3-yl)-2,6-dimethylpyridin-3-yl)-2-(tert-butoxy)acetic acid], the EC50 (read-out: Activity) was 0.1 to 1 µM and the EC50 (read-out: EC50 μM) amounted to 0.651 µM.
In the case of `Cc1nc(C)c([C@H](OC(C)(C)C)C(=O)O)c(N2CCC3(CCC3)CC2)c1-c1ccc(OCCc2ccc(F)cc2)cc1` [Example 27, (S)-2-(tert-Butoxy)-2-(5-(4-(4-fluorophenethoxy)phenyl)-2,6-dimethyl-4-(7-azaspiro[3.5]nonan-7-yl)pyridin-3-yl)acetic acid], the EC50 (read-out: Activity) was less than 0.1 µM.
Same read-out and setting: then `Cc1nc(COCC2COC2)c(-c2ccc(OCCc3ccc(F)cc3)cc2)c(N2CCC3(CCC3)CC2)c1[C@H](OC(C)(C)C)C(=O)O` [Example 48, (S)-2-(tert-Butoxy)-2-(5-(4-(4-fluorophenethoxy)phenyl)-2-methyl-6-((oxetan-3-ylmethoxy)methyl)-4-(7-azaspiro[3.5]nonan-7-yl)pyridin-3-yl)acetic acid], with less than 0.1 µM; and `Cc1cccc(F)c1CN1CCc2cc(-c3c(C)nc(C)c([C@H](OC(C)(C)C)C(=O)O)c3N3CCC4(CCC4)CC3)ccc2C1` [Example 34, (S)-2-(tert-Butoxy)-2-(5-(2-(2-fluoro-6-methylbenzyl)-1,2,3,4-tetrahydroisoquinolin-6-yl)-2,6-dimethyl-4-(7-azaspiro[3.5]nonan-7-yl)pyridin-3-yl)acetic acid], with less than 0.1 µM.
Consider `Cc1nc(C)c([C@H](OC(C)(C)C)C(=O)O)c(N2CCCC3(CCCC3)C2)c1-c1ccc(OCCc2ccc(F)cc2)cc1` [Example 18, (S)-2-(tert-Butoxy)-2-(5-(4-(4-fluorophenethoxy)phenyl)-2,6-dimethyl-4-(7-azaspiro[4.5]decan-7-yl)pyridin-3-yl)acetic acid], for which the EC50 is 0.1 to 1 µM (read-out: Activity) and 0.475 µM (read-out: EC50 μM).
For the molecule `Cc1nc(C)c([C@H](OC(C)(C)C)C(=O)O)c(N2CCC3(CCCCCC3)C2)c1-c1ccc(OCCc2ccc(F)cc2)cc1` [Example 64, (S)-2-(tert-Butoxy)-2-(5-(4-(4-fluorophenethoxy)phenyl)-2,6-dimethyl-4-(2-azaspiro[4.6]undecan-2-yl)pyridin-3-yl)acetic acid], under “read-out: Activity”, the EC50 is less than 0.1 µM.
The same measure, in the same setting: then `Cc1ccc(CN2CCc3cc(-c4c(C)nc(C)c([C@H](OC(C)(C)C)C(=O)O)c4N4CCC5(CCC5)CC4)ccc3C2)c(F)c1` [Example 37, (S)-2-(tert-Butoxy)-2-(5-(2-(2-fluoro-4-methylbenzyl)-1,2,3,4-tetrahydroisoquinolin-6-yl)-2,6-dimethyl-4-(7-azaspiro[3.5]nonan-7-yl)pyridin-3-yl)acetic acid], with less than 0.1 µM.
Regarding `Cc1nc(C)c([C@H](OC(C)(C)C)C(=O)O)c(N2CCC3(CCNC3)CC2)c1-c1ccc(OCCc2ccc(F)cc2)cc1` [Example 68, (S)-2-(tert-Butoxy)-2-(5-(4-(4-fluorophenethoxy)phenyl)-2,6-dimethyl-4-(2,8-diazaspiro[4.5]decan-8-yl)pyridin-3-yl)acetic acid], the EC50 runs as follows: (read-out: Activity) 0.1 to 1 µM; (read-out: EC50 μM) 0.731 µM.
In the case of `Cc1nc(C)c([C@H](OC(C)(C)C)C(=O)O)c(N2CCC3(CCCCCC3)C2)c1-c1ccc(C(=O)NCc2ccccc2)cc1` [Example 65, (S)-2-(5-(4-(Benzylcarbamoyl)phenyl)-2,6-dimethyl-4-(2-azaspiro[4.6]undecan-2-yl)pyridin-3-yl)-2-(tert-butoxy) acetic acid], the EC50 (read-out: Activity) is less than 0.1 µM.
Still for that read-out and setting: then `Cc1nc(C)c([C@H](OC(C)(C)C)C(=O)O)c(N2CCC3(CC2)CC3)c1-c1ccc(C(=O)NCc2ccccc2)cc1` [Example 17, (S)-2-(5-(4-(Benzylcarbamoyl)-phenyl)-2,6-dimethyl-4-(6-azaspiro[2.5]octan-6-yl)pyridin-3-yl)-2-(tert-butoxy)acetic acid], with less than 0.1 µM.
Turning to `Cc1nc(C)c([C@H](OC(C)(C)C)C(=O)O)c(N2CCC3(CCNC3)CC2)c1-c1ccc(C(=O)NCc2ccccc2)cc1` [Example 69, (S)-2-(5-(4-(Benzylcarbamoyl)phenyl)-2,6-dimethyl-4-(2,8-diazaspiro[4.5]decan-8-yl)pyridin-3-yl)-2-(tert-butoxy)acetic acid], the EC50 was greater than 1 µM (read-out: Activity) and 9.66 µM (read-out: EC50 μM).
In the case of `Cc1nc(C)c([C@H](OC(C)(C)C)C(=O)O)c(N2CC3CCCC3C2)c1-c1ccc(C(=O)NCc2ccccc2)cc1` (stereo partly drawn) [Example 4, (2S)-2-(5-(4-(Benzylcarbamoyl)phenyl)-4-(hexahydrocyclopenta[c]pyrrol-2(1H)-yl)-2,6-dimethylpyridin-3-yl)-2-(tert-butoxy)acetic acid], the EC50 (read-out: Activity) was less than 0.1 µM.
The same measure, in the same setting: as for `Cc1nc(CN(C)C2CCOCC2)c(-c2ccc(OCCc3ccc(F)cc3)cc2)c(N2CCC3(CCC3)CC2)c1[C@H](OC(C)(C)C)C(=O)O` [Example 50, (S)-2-(tert-Butoxy)-2-(5-(4-(4-fluorophenethoxy)phenyl)-2-methyl-6-((methyl(tetrahydro-2H-pyran-4-yl)amino)methyl)-4-(7-azaspiro[3.5]nonan-7-yl)pyridin-3-yl)acetic acid], the figure is less than 0.1 µM.
As for `Cc1cc(F)ccc1CN1CCc2cc(-c3c(C)nc(C)c([C@H](OC(C)(C)C)C(=O)O)c3N3CCC4(CCC4)CC3)ccc2C1` [Example 35, (S)-2-(tert-Butoxy)-2-(5-(2-(4-fluoro-2-methylbenzyl)-1,2,3,4-tetrahydroisoquinolin-6-yl)-2,6-dimethyl-4-(7-azaspiro[3.5]nonan-7-yl)pyridin-3-yl)acetic acid], the EC50 is less than 0.1 µM (read-out: Activity) and 0.006 µM (read-out: EC50 μM).
Turning to `Cc1nc(CNC2CCOCC2)c(-c2ccc(OCCc3ccc(F)cc3)cc2)c(N2CCC3(CCC3)CC2)c1[C@H](OC(C)(C)C)C(=O)O` [Example 55, (S)-2-(tert-Butoxy)-2-(5-(4-(4-fluorophenethoxy)phenyl)-2-methyl-4-(7-azaspiro[3.5]nonan-7-yl)-6-(((tetrahydro-2H-pyran-4-yl)amino)methyl)pyridin-3-yl)acetic acid], the EC50 runs as follows: (read-out: Activity) less than 0.1 µM; (read-out: EC50 μM) 0.001 µM.
On to `Cc1nc(C)c([C@H](OC(C)(C)C)C(=O)O)c(N2CC3C(C2)C3(C)C)c1-c1ccc(OCCc2ccc(F)cc2)cc1` (stereo partly drawn) [Example 8, (2S)-2-(tert-Butoxy)-2-(4-(6,6-dimethyl-3-azabicyclo[3.1.0]hexan-3-yl)-5-(4-(4-fluorophenethoxy)phenyl)-2,6-dimethyl-pyridin-3-yl)acetic acid], for which, under “read-out: Activity”, the EC50 is less than 0.1 µM.
Same read-out and setting: then `Cc1nc(C)c([C@H](OC(C)(C)C)C(=O)O)c(N2CC3CCCC3C2)c1-c1ccc(OCCc2ccc(F)cc2)cc1` (stereo partly shown) [Example 3], with less than 0.1 µM.
